Measured values reported in US8084431B2, “Method for inhibiting activation of macrophages, inhibiting formation of osteoclasts, inhibiting function of osteoclasts, and/or activating osteoblasts” (China Medical University, priority 2008, dated 2011).
Read-outs that look alike come from different tables or passages of the source.

Key:
myelocytes of rats = assay: Formation of osteoclasts from rat myelocytes (RANKL + M-CSF, TRAP stain); assay type: cell-based, Wistar rats; details: for inhibition at 5 µM / inhibition at 25 µM / inhibition at 50 µM / inhibition at 100 µM: Rattus norvegicus, Osteoclast, 216 h, 9 days
Description: Myelocytes were first prepared. Male Wistar rats with the body weight of 250 g to 300 g were used to prepare myelocytes. Under the condition of anaesthesia, the femurs of the rats were taken, and myelocytes were washed out with a phosphate buffer solution. […] After incubation for 9 days, monocytes in the marrow differentiated into osteoclasts. The osteoclasts were stained with a TRAP (tartrate-resistant acid phosphatase) stain reagent (Sigma, Louis, Mo., USA), and the number of the osteoclasts was calculated. Besides the same RANKL and M-CSF as the control group, various concentrations (0, 5, 25, 50, and 100 μM) of kinsenoside or 10 nM of estradiol (Wako, Japan) were added into culture plates, respectively. Then, rat myelocytes were incubated for 9 days, and the situation that the myelocytes differentiated into osteoclasts was observed. The percentage of the inhibition effect of kinsenoside and estradiol on the formation of osteoclasts was calculated with the following formula, and the result is shown in Table 9. Inhibition percentage (%)=(the number of osteoclasts of the control group−the number of osteoclasts of the experimental group)/the number of osteoclasts of the control group×100% In addition to the aforesaid RANKL, kinsenoside, and/or estradiol, the inhibitor of estradiol, Fulvestrant (Sigma, Louis, Mo., USA) (1 nM), was also added into culture plates. Then, rat myelocytes were incubated for 9 days, and the situation that the myelocytes differentiated into osteoclasts was observed. The percentage of the inhibition effect of kinsenoside on the formation of osteoclasts was calculated, and the result is shown in Table 9.

NF-κB = assay: EMSA of NF-κB entering nuclei in RANKL-activated macrophages RAW 264.7; assay type: cell-based; details: kinsenoside 10, 25, 50 μM, RANKL 50 ng/ml, 60 minutes, FIG. 7B and 7C
Text: EMSA (Electrophoresis Mobility Shift Assay) was used to observe the mechanism of the inhibition effect of kinsenoside on the formation of osteoclasts. It is known that RANKL may activate macrophages RAW 264.7 to make NF-κB enter nuclei to stimulate macrophages RAW 264.7 to differentiate into osteoclasts (see Wada T, Nakashima T, Hiroshi N, Penninger J M. 2006. RANKL-RANK signaling in osteoclastogenesis and bone disease. Trends Mol. Med. 12, 17-25).
The DNA sequences used in the EMSA assay are as follows:
The macrophages RAW 264.7 were incubated for 60 minutes, and then proteins in the nuclei were extracted to be analyzed with EMSA. Herein, the DNA sequences used in the EMSA assay are the same as the above experiment.

[1] = test system: MMP-9 (metalloproteinases 9); assay: RT-PCR of MMP-9 mRNA in RANKL-treated macrophages RAW 264.7; assay type: cell-based; details: kinsenoside 50 μM, RANKL 50 ng/ml, 24, 48, 72 hours, FIG. 8A and 8B
Description: As osteoclasts are activated, they RELEASE MMP-9 (metalloproteinases 9) to erode collagen in bones. Using RT-PCR to analyze the expression of mRNA of MMP-9, one can see if kinsenoside inhibits the bone resorption activity of osteoclasts.
As macrophages RAW 264.7 were incubated in culture plates containing 50 ng/ml of RANKL, 50 μM of kinsenoside was added thereto. After the macrophages RAW 264.7 were incubated for 24, 48, and 72 hours, mRNAs were extracted to analyze the expression of MMP-9 with RT-PCR. […] Thus, kinsenoside can inhibit the bone resorption of osteoclasts.

MC3T3-E1 cells = assay: Mineralization of MC3T3-E1 cells (Alizarin red-S); assay type: cell-based; details: 14 days
Description: 50 μg/ml of Vitamin C and 10 μM of β-glycerophosphatase were added into culture plates containing MC3T3-E1 cells, and the MC3T3-E1 cells were incubated for 14 days. After 14 days, the mineralization of the MC3T3-E1 cells occurred, and led to the deposition of calcium. Alizarin red-S (Sigma) was used to measure the content of calcium (see Gregory C A, Gunn W G, Peister A, Prockop D J. 2004. An Alizarin red-based assay of mineralization by adherent cells in culture: comparison with cetylpyridinium chloride extract. Anal. Biochem. 329, 77-84).
50 μg/ml of Vitamin C and 10 μM of 0-glycerophosphatase were added into culture plates containing MC3T3-E1 cells, and various concentrations (0, 100, and 1,000 nM) of kinsenoside were added into the culture plates, respectively. The MC3T3-E1 cells were incubated for 14 days, and Alizarin red-S was used to measure the content of calcium.

macrophages RAW 264.7 [2] = assay: Formation of osteoclasts from macrophages RAW 264.7 (RANKL, TRAP stain); assay type: cell-based; details: Mus musculus, RAW264.7, 120 h, RANKL 50 ng/ml, 5 days, read-out: inhibition percentage
Description: If macrophages RAW 264.7 are incubated in culture plates containing 50 ng/ml of differentiation inducer, RANKL, they usually differentiate into osteoclasts after 5 days. In Experiment H, various concentrations (0, 10, and 50 μM) of kinsenoside or 10 nM of estradiol were added into culture plates containing macrophages RAW 264.7, respectively, and the macrophages RAW 264.7 were incubated for 5 days. […] The number of osteoclasts was counted, and the inhibition percentage of the formation of osteoclasts was calculated with the following formula, and the result is shown in Table 11. Inhibition percentage=(the number of osteoclasts in the control group−the number of osteoclasts in the experimental group)/the number of osteoclasts in the control group×100%

[3] = test system: macrophages in the peritoneal cavity of ICR mice; assay: NO release of LPS-induced peritoneal macrophages (Griess reagent); assay type: cell-based; details: LPS 1 μg/ml, 24 hours
Description: By means of peritoneal cavity injection, ICR mice (BioLASCO, Co., Ltd., Taiwan) were administrated with 5 wt % of thioglycollate (Becton Dickinson, Franklin Lakes, N.J.). […] Then, kinsenoside (10, 25, 50 μM) was added into the culture plates, and the macrophages were incubated for 30 minutes. Lipopolysaccharides (1 μg/ml, Sigma) were added into the plates to induce the inflammatory reaction of macrophages. 24 hours later, the supernatant was collected, and the content of nitric oxide was determined with a Griess reagent (Sigma).

macrophages RAW 264.7 [4] = details: mouse, 3 days
Description: After 3 days, the survival rate of the macrophages RAW 264.7 was measured with MTS (3-(4,5-di-methylthiazol-2-yl)-5-(3-carboxymethoxyphenyl)-2-(4-sulfophenyl)-2H-tetrazolium) (Promega, Madison, Wis., USA), and the result is shown in Table 10.
The mechanism of MTS is that a live cell has the activity of dehydrogenase, so MTS can be reduced to become a red purple soluble product, and the product has the highest absorbance at the wavelength of 490 nm. Therefore, the survival rate of cells can be determined according to the absorbance, and the survival rate of cells can be calculated with the following formula: Survival rate=the absorbance of the experimental group/the absorbance of the control group×100%

[5] = with Fulvestrant 1 nM, read-out: inhibition percentage Experimental Group II
[6] = without Fulvestrant, read-out: inhibition percentage Experimental Group I

O=C1C[C@@H](OC2OC(CO)C(O)C(O)C2O)CO1 (stereo partly drawn) [kinsenoside, 3-(R)-3-β-D-glucopyranosyloxy-butanolide]
effect of Fulvestrant on the inhibition of osteoclast formation (myelocytes of rats; Fulvestrant 1 nM, summary of Table 9): no inhibition effect | inhibition at 5 µM (myelocytes of rats; [5]): 12 ± 7.5% | inhibition at 5 µM (myelocytes of rats; [6]): 15.3 ± 7.2% | inhibition at 25 µM (myelocytes of rats; [5]): 16.3 ± 6.7% | inhibition at 25 µM (myelocytes of rats; [6]): 25 ± 2% | inhibition at 50 µM (myelocytes of rats; [5]): 65.7 ± 3.8% | inhibition at 50 µM (myelocytes of rats; [6]): 50.3 ± 4.2% | inhibition at 100 µM (myelocytes of rats; [5]): 76 ± 3.6% | inhibition at 100 µM (myelocytes of rats; [6]): 78.1 ± 2.8% | amount of NF-κB that enters into the nuclei (NF-κB): reduces the amount of NF-κB that enters into the nuclei | expression of mRNA of MMP-9 [1]: inhibits the expression of mRNA of MMP-9 | Alizarin red-S (MC3T3-E1 cells; 10 nM): 137 ± 29% | Alizarin red-S (MC3T3-E1 cells; 100 nM): 137 ± 27% | Alizarin red-S (MC3T3-E1 cells; 1000 nM): 174 ± 42 % | inhibition at 10 µM (macrophages RAW 264.7 [2]; 10 μM): 19 ± 9% | inhibition at 25 µM (macrophages RAW 264.7 [2]; 25 μM): 59 ± 8% | inhibition at 50 µM (macrophages RAW 264.7 [2]; 50 μM): 71 ± 3% | NO concentration ([3]; kinsenoside 10 μM): 26.7 ± 3.2 µM | NO concentration ([3]; kinsenoside 25 μM): 20.2 ± 2.1 µM | NO concentration ([3]; kinsenoside 50 μM): 16.2 ± 1.0 µM | survival rate Experimental Group III (macrophages RAW 264.7 [4]; 10 μM): 117.5 ± 8.0% | survival rate Experimental Group IV (macrophages RAW 264.7 [4]; 10 μM): 100.3 ± 4.0% | survival rate Experimental Group III (macrophages RAW 264.7 [4]; 25 μM): 139.9 ± 4.9% | survival rate Experimental Group IV (macrophages RAW 264.7 [4]; 25 μM): 105.0 ± 2.4% | survival rate Experimental Group III (macrophages RAW 264.7 [4]; 50 μM): 136.9 ± 4.8% | survival rate Experimental Group IV (macrophages RAW 264.7 [4]; 50 μM): 101.0 ± 0.3%
